The record followed here is patent US10894775B2, “Piperidine derivatives as liver X receptor beta agonists, compositions, and their use” (Merck Sharp & Dohme Corp., priority 2016, dated 2021).

Where two headings read alike, the source gives them in different places.

In test [1] the target is T1, glutathione-S-transferase (GST) tagged LXRbeta LBD (ligand binding domain) (Homo sapiens, UniProt P55055).
T1 construct: purchased Invitrogen pv4658.pps
T1 sequence (P55055 222-460 limits assumed): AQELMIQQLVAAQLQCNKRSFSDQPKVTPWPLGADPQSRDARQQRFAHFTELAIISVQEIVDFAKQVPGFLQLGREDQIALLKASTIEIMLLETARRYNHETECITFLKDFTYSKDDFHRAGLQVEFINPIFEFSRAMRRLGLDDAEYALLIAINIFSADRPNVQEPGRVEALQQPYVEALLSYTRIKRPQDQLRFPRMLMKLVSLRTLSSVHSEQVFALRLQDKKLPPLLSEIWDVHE
The test is described as follows: LanthaScreen TR-FRET Liver X Receptor Coactivator Assay, LXR beta. The test is classed as biochemical. The following applies: for Emax: read-out: LXR beta actiivty at max dose (%); for EC50: potency (Inflection Point) of compound-induced co-activator recruitment, TR-FRET. Summed up: (§1)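 Test ligands were combined with the receptor LBD, after which terbium-labelled anti-GST antibody and a fluorescein-tagged coactivator peptide were introduced together. Plates sat at room temperature, then time-resolved FRET was measured.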
Background: Time-resolved FRET reads energy transfer from a long-lived donor to a nearby acceptor.

For test [2], the target named is T2, glutathione-S-transferase (GST) tagged LXRalpha LBD (ligand binding domain) (Homo sapiens, UniProt Q13133).
T2 construct: purchased Invitrogen pv4655
T2 sequence (Q13133 209-447 limits assumed): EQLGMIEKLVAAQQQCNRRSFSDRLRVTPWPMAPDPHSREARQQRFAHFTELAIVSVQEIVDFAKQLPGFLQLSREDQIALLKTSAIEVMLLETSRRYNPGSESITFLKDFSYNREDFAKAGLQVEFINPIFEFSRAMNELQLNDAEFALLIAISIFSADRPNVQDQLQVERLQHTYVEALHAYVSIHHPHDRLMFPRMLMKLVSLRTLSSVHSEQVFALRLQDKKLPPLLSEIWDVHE
The test is described as follows: LanthaScreen TR-FRET Liver X Receptor Coactivator Assay, LXR alpha. The test is classed as biochemical. The following applies: for Emax: read-out: LXR alpha actiivty at max dose (%); for EC50 / LXR alpha IP (nM): potency (Inflection Point) of compound-induced co-activator recruitment, TR-FRET. A digest of the protocol: as §1

The mark [3] stands for this setting: efficacy (Emax) in relation to reference dual agonist T0901317.

Turning to `CN(C)C(=O)c1ccc(CCC[C@H]2CC23CCN(C(=O)[C@](O)(c2ccccc2)C(F)(F)F)CC3)cc1Cl` (single isomer, unassigned) [Example 17-2, 2-chloro-N,N-dimethyl-4-(3-((S or R)-6-((R or S)-3,3,3-trifluoro-2-hydroxy-2-phenylpropanoyl)-6-azaspiro[2.5]octan-1-yl)propyl)benzamide], the Emax in test [1] (setting [3]) was found to be 128%; in test [2] (setting [3]), 35%. In addition, the figures for the EC50 in test [1] (read-out: LXR beta IP) and in test [2] (read-out: LXR alpha IP) were 25 nM and 395 nM, respectively.
Take `COc1cccc([C@@](O)(C(=O)N2CCC3(CC2)C[C@H]3CCCc2ccc(C(=O)NC3CC3)c(Cl)c2)C(F)(F)F)c1` (single isomer, unassigned) [Example 17-3, 2-chloro-N-cyclopropyl-4-(3-((R or S)-6-((R or S)-3,3,3-trifluoro-2-hydroxy-2-(3-methoxyphenyl)propanoyl)-6-azaspiro[2.5]octan-1-yl)propyl)benzamide]: the Emax in test [1] (setting [3]) is 43%; in test [2] (setting [3]) it was 8%. The EC50 in test [1] (read-out: LXR beta IP) amounted to 19 nM. The “LXR alpha IP (nM)” value in test [2] is recorded as “No IP”.
Consider `COc1cccc(C(O)(C(=O)N2CCC3(CCC(Cc4ccc(C(=O)N(C)C)c(Cl)c4)CC3)CC2)C(F)(F)F)c1` (single isomer, unassigned) [Example 18-1, 2-chloro-N,N-dimethyl-4-((3-((R or S)-3,3,3-trifluoro-2-hydroxy-2-(3-methoxyphenyl)propanoyl)-3-azaspiro[5.5]undecan-9-yl)methyl)benzamide], for which the results for the EC50 in test [1] (LXR beta IP (nM)) and in test [2] (read-out: LXR alpha IP) were 72 nM and 739 nM, respectively. Further, the values for the Emax in test [1] and in test [2] (setting [3]) were 65% and 21%, respectively.
Taken in the same sequence, the figures for `COc1cccc(C(O)(C(=O)N2CCC3(CCC(Sc4ccc(C(=O)N(C)C)c(Cl)c4)CC3)CC2)C(F)(F)F)c1` (single isomer, unassigned) [Example 19-1, 2-chloro-N,N-dimethyl-4-(3-((R or S)-3,3,3-trifluoro-2-hydroxy-2-(3-methoxyphenyl)propanoyl)-3-azaspiro[5.5]undecan-9-ylthio)benzamide] were 58 nM, 1060 nM, 101% and 23%.
For the compound `CN(C)C(=O)c1ccc(SC2CCC3(CC2)CCN(C(=O)C(O)(c2cc(Cl)cc(Cl)c2)C(F)(F)F)CC3)cc1Cl` (single isomer, unassigned) [Example 19-2, 2-chloro-4-(3-((R or S)-2-(3,5-dichlorophenyl)-3,3,3-trifluoro-2-hydroxypropanoyl)-3-azaspiro[5.5]undecan-9-ylthio)-N,N-dimethylbenzamide], the Emax in test [1] (setting [3]) stood at 74%; in test [2] (setting [3]) it was 8%. In addition, in test [1] (read-out: LXR beta IP), the EC50 turned out to be 38 nM. Moreover, the “LXR alpha IP (nM)” value in test [2] is “No IP”.
Taken in the same sequence, the figures for `CCOc1cccc(C(O)(C(=O)N2CCC3(CCC(Sc4ccc(C(=O)N(C)C)c(Cl)c4)CC3)CC2)C(F)(F)F)c1` (single isomer, unassigned) [Example 19-3, 2-chloro-4-(3-((S or R)-2-(3-ethoxyphenyl)-3,3,3-trifluoro-2-hydroxypropanoyl)-3-azaspiro[5.5]undecan-9-ylthio)-N,N-dimethylbenzamide] were 95%, 0%, 136 nM and “No IP”.
As to `CN(C)C(=O)c1ccc([S+]([O-])C2CCC3(CC2)CCN(C(=O)C(O)(c2cc(Cl)cc(Cl)c2)C(F)(F)F)CC3)cc1Cl` (single isomer, unassigned) [Example 20-1, 2-chloro-4-(3-((R or S)-2-(3,5-dichlorophenyl)-3,3,3-trifluoro-2-hydroxypropanoyl)-3-azaspiro[5.5]undecan-9-ylsulfinyl)-N,N-dimethylbenzamide], the EC50 in test [1] (LXR beta IP (nM)) was 938 nM. The Emax in test [1] is 50%. In addition, in test [2], the “LXR alpha IP (nM)” value is recorded as “No IP” and the Emax is 0%.
In the case of `CN(C)C(=O)c1ccc(S(=O)(=O)C2CCC3(CC2)CCN(C(=O)C(O)(c2cc(Cl)cc(Cl)c2)C(F)(F)F)CC3)cc1Cl` (single isomer, unassigned) [Example 21-1, 2-chloro-4-(3-((R or S)-2-(3,5-dichlorophenyl)-3,3,3-trifluoro-2-hydroxypropanoyl)-3-azaspiro[5.5]undecan-9-ylsulfonyl)-N,N-dimethylbenzamide], the EC50 in test [1] (LXR beta IP (nM)) stood at 1460 nM. Further, the Emax in test [1] was found to be 50%. Further, in test [2], the “LXR alpha IP (nM)” value is “No IP” and the Emax was 0%.
For the compound `COc1cccc([C@@](O)(C(=O)N2CCC([C@H]3C[C@H]3CSc3ccc(C(=O)N(C)C)c(Cl)c3)CC2)C(F)(F)F)c1` (single isomer, unassigned) [Example 23-1, 2-chloro-N,N-dimethyl-4-(((1R,2R or 1S,2S)-2-(1-((R or S)-3,3,3-trifluoro-2-hydroxy-2-(3-methoxyphenyl)propanoyl)piperidin-4-yl)cyclopropyl)methylthio)benzamide], the figures for the Emax in test [1] (setting [3]) and in test [2] (setting [3]) were 118% and 24%, respectively. In addition, the EC50 turned out to be 27 nM in test [1] (read-out: LXR beta IP) and 946 nM in test [2] (read-out: LXR alpha IP).
In the case of `CNC(=O)c1ccc(NCCCCC2CCN(C(=O)C3(c4ccccc4)CCCC3)CC2)cc1Cl` [Example 1-4, 2-chloro-N-methyl-4-(4-(1-(1-phenylcyclopentanecarbonyl)piperidin-4-yl)butylamino)benzamide], the Emax in test [1] (setting [3]) worked out at 42%; in test [2] (setting [3]), 2%. Besides, in test [1] (read-out: LXR beta IP), the EC50 was 183 nM. Also, the “LXR alpha IP (nM)” value in test [2] is “No IP”.
Consider `CN(C)C(=O)c1ccc(NCCCC2CCN(S(=O)(=O)c3c(Cl)cccc3Cl)CC2)cc1Cl` [Example 1-12, 2-chloro-4-(3-(1-(2,6-dichlorophenylsulfonyl)piperidin-4-yl)propylamino)-N,N-dimethylbenzamide], for which the Emax in test [1] (setting [3]) was found to be 82%; in test [2] (setting [3]), 46%. Besides, the results for the EC50 in test [1] (read-out: LXR beta IP) and in test [2] (read-out: LXR alpha IP) were 27 nM and 855 nM, respectively.
Regarding `CN(C)C(=O)c1ccc(NCCC2CCN(C(=O)OCc3ccccc3)CC2)cc1Cl` [Example 1-13, benzyl 4-(2-(3-chloro-4-(dimethylcarbamoyl)phenylamino)ethyl)piperidine-1-carboxylate], the Emax in test [1] (setting [3]) turned out to be 21%; in test [2] (setting [3]), 12%. Further, the EC50 in test [1] (read-out: LXR beta IP) came out at 104 nM. In test [2], the “LXR alpha IP (nM)” value is “No IP”.
Regarding `CN(C)C(=O)c1ccc(NCCCCC2CCN(C(=O)OCc3ccccc3)CC2)cc1Cl` [Example 1-14, benzyl 4-(4-(3-chloro-4-(dimethylcarbamoyl)phenylamino)butyl)piperidine-1-carboxylate], the values for the Emax in test [1] (setting [3]) and in test [2] (setting [3]) were 41% and 14%, respectively. Further, the EC50 in test [1] (read-out: LXR beta IP) was determined as 106 nM; in test [2] (read-out: LXR alpha IP), 1970 nM.
`CN(C)C(=O)c1ccc(NCCCCC2CCN(C(=O)C(O)(c3ccccc3)C(F)(F)F)CC2)nc1Cl` (centres unmarked) [Example 2-1, 2-chloro-N,N-dimethyl-6-(4-(1-(3,3,3-trifluoro-2-hydroxy-2-phenylpropanoyl)piperidin-4-yl)butylamino)nicotinamide]: the EC50 stood at 29 nM in test [1] (read-out: LXR beta IP) and 1250 nM in test [2] (LXR alpha IP (nM)). The Emax in test [1] was found to be 52%; in test [2], 25%.
Regarding `CN(C)C(=O)c1ccc(N(C)CCC2CC3(CCN(C(=O)C(C)(C)c4ccccc4)CC3)C2)nc1Cl` [Example 12-1, 2-chloro-N,N-dimethyl-6-(methyl(2-(7-(2-methyl-2-phenylpropanoyl)-7-azaspiro[3.5]nonan-2-yl)ethyl)amino)nicotinamide], in test [1] (read-out: LXR beta IP), the EC50 was 430 nM. For the same compound, the results for the Emax in test [1] and in test [2] were 34% and 5%, respectively. The “LXR alpha IP (nM)” value in test [2] is “No IP”.
For the compound `CN(Cc1ccc(C(=O)N(C)C)c(Cl)c1)CC1CC12CCN(C(=O)C(C)(C)c1ccccc1)CC2` (centres unmarked) [Example 14-1, 2-chloro-N,N-dimethyl-4-((methyl((6-(2-methyl-2-phenylpropanoyl)-6-azaspiro[2.5]octan-1-yl)methyl)amino)methyl)benzamide], the results for the Emax in test [1] (setting [3]) and in test [2] (setting [3]) were 99% and 33%, respectively. Moreover, the EC50 is 1260 nM in test [1] (read-out: LXR beta IP) and 15500 nM in test [2] (read-out: LXR alpha IP).
The matching figures for `CN(C)C(=O)c1ccc(CCCCC2CCN(C(=O)C(C)(C)c3ccccc3)CC2)cc1Cl` [Example 15-4, 2-chloro-N,N-dimethyl-4-(4-(1-(2-methyl-2-phenylpropanoyl)piperidin-4-yl)butyl)benzamide]: 103%, 39%, 32 nM and 463 nM.
